Experimental data from patent US8759522B2, “Inhibitors of protein tyrosine kinase activity” (Methylgene Inc., priority 2008, dated 2014).

These compounds were tested on CNV progression (assay: In vivo choroidal neovascularization (CNV) model). Conditions: 240 h; rat laser-induced CNV, 30 nmol/eye injection on Day 3, CNV area on Day 10 vs vehicle-treated group.
Set-up: species or system Brown-Norway rats
From the text: In vivo Choroidal Neovascularization (CNV) Model
This test measures the capacity of compounds to inhibit CNV progression. CNV is the main cause of severe vision loss in patients suffering from age-related macular degeneration (AMD).
Male Brown-Norway rats (Japan Clea Co., Ltd.) were used in these studies.
Rats were anesthetized by intraperitoneal injection of pentobarbital, and the right pupil was dilated with 0.5% tropicamide and 0.5% phenylephrine hydrochloride. The right eye received 6 laser burns between retinal vessels using a slit lamp delivery system of Green laser Photocoagulator (Nidex Inc., Japan), and microscope slide glass with Healon™ (AMO Inc) used as a contact lens. The laser power was 100 or 200 mW for 0.1 second and spot diameter was 100 μm. At the time of laser burn, bubble production was observed, which is an indication of rupture of Bruch's membrane which is important for CNV generation.
Rats were divided into the groups based on their body weight using SAS software (SAS institute Japan, R8.1) after laser irradiation (Day 0). After animals were anesthetized, and the right pupil dilated (as above mentioned), the right eye of the animal received the compound or vehicle by an injection (10 μL/eye) at doses of 30 nmol/eye on Day 3. The compounds were dissolved or suspended in CBS, PBS, or other adequate vehicles before injection.
On Day 10, the animals were anesthetized with ether, and high molecular weight fluorescein isothiocyanate (FITC)-dextran (SIGMA, 2×10^6 MW) was injected via a tail vein (20 mg/rat). About 30 min after FITC-dextran injection, animals were euthanized by ether or carbon dioxide, and the eyes were removed and fixed with 10% formaline neutral buffer solution. After over 1 hour of fixation, RPE-choroid-sclera flat mounts were obtained by removing cornea, lens and retina from the eyeballs. The flat mounts were mounted in 50% glycerol on a microscope slide, and the portion burned by laser was photographed using a fluorescence microscope (Nikon Corporation, excitation filter: 465-495 nm, absorption filter: 515-555 nm). The CNV area was obtained by measurement of hyper-fluorescence area observed on the photograph using Scion image.
The average CNV area of 6 burns was used as an individual value of CNV area, and the average CNV area of compound treated group was compared with that of the vehicle-treated group.
Compound COCCNCc1cnc(-c2cc3nccc(Oc4ccc(NC(=O)NC(C)C)cc4F)c3s2)n1C [Compound 315, 1-(3-Fluoro-4-(2-(5-((2-methoxyethylamino)methyl)-1-methyl-1H-imidazol-2-yl)thieno[3,2-b]pyridin-7-yloxy)phenyl)-3-isopropylurea] has an inhibition in vivo at 30 nmol/eye of no less than 60%. In the case of COCCOCCOCCOCCNCc1ccc(-c2cc3nccc(Oc4ccc(NC(=O)NC5CC5)cc4F)c3s2)nc1 [Compound 323, 1-(4-(2-(5-5,8,11,14-Tetraoxa-2-azapentadecylpyridin-2-yl)thieno[3,2-b]pyridin-7-yloxy)-3-fluorophenyl)-3-cyclopropylurea], the inhibition in vivo at 30 nmol/eye is reported as no less than 60%. N[C@@H](CCCCNCc1ccc(-c2cc3nccc(Oc4ccc(NC(=O)NC5CC5)cc4F)c3s2)nc1)C(=O)O [Compound 324, (S)-2-amino-6-((6-(7-(4-(3-cyclopropylureido)-2-fluorophenoxy)thieno[3,2-b]pyridin-2-yl)pyridin-3-yl)methylamino)hexanoic acid] was tested, and the inhibition in vivo at 30 nmol/eye was 40 to 60%. COCCOCCNCc1ccc(-c2cc3nccc(Oc4ccc(NC(=O)NC5CC5)cc4F)c3s2)nc1 [Compound 331, 1-Cyclopropyl-3-(3-fluoro-4-(2-(5-((2-(2-methoxyethoxy)ethylamino)methyl)pyridin-2-yl)thieno[3,2-b]pyridin-7-yloxy)phenyl)urea] gave an inhibition in vivo at 30 nmol/eye of 40 to 60%. O=C(Nc1ccc(Oc2ccnc3cc(-c4ccc(CN5CCCC5=O)cn4)sc23)c(F)c1)NC1CC1 [Compound 333, 1-cyclopropyl-3-(3-fluoro-4-(2-(5-((2-oxopyrrolidin-1-yl)methyl)pyridin-2-yl)thieno[3,2-b]pyridin-7-yloxy)phenyl)urea] gave an inhibition in vivo at 30 nmol/eye of no less than 60%. COC[C@H](C)N(Cc1ccc(-c2cc3nccc(Oc4ccc(NC(=O)NC5CC5)cc4F)c3s2)nc1)C(C)=O [Compound 335, (S)—N-((6-(7-(4-(3-cyclopropylureido)-2-fluorophenoxy)thieno[3,2-b]pyridin-2-yl)pyridin-3-yl)methyl)-N-(1-methoxypropan-2-yl)acetamide] showed an inhibition in vivo at 30 nmol/eye of 40 to 60%. For COCCN(Cc1ccc(-c2cc3nccc(Oc4ccc(NC(=O)NC5CC5)cc4F)c3s2)nc1)C(=O)[C@H](N)C(C)C [Compound 341, (R)-2-amino-N-((6-(7-(4-(3-cyclopropylureido)-2-fluorophenoxy)thieno[3,2-b]pyridin-2-yl)pyridin-3-yl)methyl)-N-(2-methoxyethyl)-3-methylbutanamide], the inhibition in vivo at 30 nmol/eye was no less than 60%. With COCCN(Cc1cnc(-c2cc3nccc(Oc4ccc(NC(=O)NC5CC5)cc4F)c3s2)n1C)S(C)(=O)=O [Compound 349, N-((2-(7-(4-(3-Cyclopropylureido)-2-fluorophenoxy)thieno[3,2-b]pyridin-2-yl)-1-methyl-1H-imidazol-5-yl)methyl)-N-(2-methoxyethyl)methanesulfonamide] the inhibition in vivo at 30 nmol/eye was no less than 60%. Work on COCCNCc1cnc(-c2cc3nccc(Oc4ccc(NC(=O)Nc5ccc(F)cc5F)cc4F)c3s2)n1C [Compound 351, 1-(2,4-difluorophenyl)-3-(3-fluoro-4-(2-(5-((2-methoxyethylamino)methyl)-1-methyl-1H-imidazol-2-yl)thieno[3,2-b]pyridin-7-yloxy)phenyl)urea] yielded an inhibition in vivo at 30 nmol/eye of 40 to 60%. Work on COCCNCc1cccc(-c2cc3nccc(Oc4ccc(NC(=O)Nc5cccc(P(C)(C)=O)c5)cc4F)c3s2)n1 [Compound 387, 1-(3-(dimethylphosphoryl)phenyl)-3-(3-fluoro-4-(2-(6-((2-methoxyethylamino)methyl)pyridin-2-yl)thieno[3,2-b]pyridin-7-yloxy)phenyl)urea] yielded an inhibition in vivo at 30 nmol/eye of 40 to 60%. COCCOCCOCCNCc1ccc(-c2cc3nccc(Oc4ccc(NC(=O)Nc5cccc(P(C)(C)=O)c5)cc4F)c3s2)nc1 [Compound 390, 1-(4-(2-(5-5,8,11-trioxa-2-azadodecylpyridin-2-yl)thieno[3,2-b]pyridin-7-yloxy)-3-fluorophenyl)-3-(3-(dimethylphosphoryl)phenyl)urea] showed an inhibition in vivo at 30 nmol/eye of 40 to 60%. COCCOCCNCc1ccc(-c2cc3nccc(Oc4ccc(NC(=O)Nc5cc(C)on5)cc4F)c3s2)nc1 [Compound 392, 1-(3-fluoro-4-(2-(5-((2-(2-methoxyethoxy)ethylamino)methyl)pyridin-2-yl)thieno[3,2-b]pyridin-7-yloxy)phenyl)-3-(5-methylisoxazol-3-yl)urea] gave an inhibition in vivo at 30 nmol/eye of 40 to 60%. COCCNCc1ccc(-c2cc3nccc(Oc4ccc(NC(=O)Nc5nc(C)cs5)cc4F)c3s2)nc1 [Compound 397, 1-(3-fluoro-4-(2-(5-((2-methoxyethylamino)methyl)pyridin-2-yl)thieno[3,2-b]pyridin-7-yloxy)phenyl)-3-(4-methylthiazol-2-yl)urea] gave an inhibition in vivo at 30 nmol/eye of 40 to 60%. COCCNCc1ccc(-c2cc3nccc(Oc4ccc(NC(=O)Nc5cccc(S(N)(=O)=O)c5)cc4F)c3s2)nc1 [Compound 403, 3-(3-(3-fluoro-4-(2-(5-((2-methoxyethylamino)methyl)pyridin-2-yl)thieno[3,2-b]pyridin-7-yloxy)phenyl)ureido)benzenesulfonamide] was tested, and the inhibition in vivo at 30 nmol/eye was no less than 60%. Compound COCCN(Cc1ccc(-c2cc3nccc(Oc4ccc(NC(=O)Nc5cccc(S(C)(=O)=O)c5)cc4F)c3s2)nc1)C(C)=O [Compound 413, N-((6-(7-(2-fluoro-4-(3-(3-(methylsulfonyl)phenyl)ureido)phenoxy)thieno[3,2-b]pyridin-2-yl)pyridin-3-yl)methyl)-N-(2-methoxyethyl)acetamide] has an inhibition in vivo at 30 nmol/eye of no less than 60%. COCCNCc1ccc(-c2cc3nccc(Oc4ccc(NC(=O)NC5CCC5)cc4F)c3s2)nc1 [Compound 414, 1-cyclobutyl-3-(3-fluoro-4-(2-(5-((2-methoxyethylamino)methyl)pyridin-2-yl)thieno[3,2-b]pyridin-7-yloxy)phenyl)urea] showed an inhibition in vivo at 30 nmol/eye of 40 to 60%. With COCCN(Cc1ccc(-c2cc3nccc(Oc4ccc(NC(=O)Nc5cccc(C(N)=O)c5)cc4F)c3s2)nc1)C(=O)OC [Compound 419, methyl (6-(7-(4-(3-(3-carbamoylphenyl)ureido)-2-fluorophenoxy)thieno[3,2-b]pyridin-2-yl)pyridin-3-yl)methyl(2-methoxyethyl)carbamate] the inhibition in vivo at 30 nmol/eye was 40 to 60%.

Same assay, conditions: rat laser-induced CNV, 30 nmol/eye injection on Day 3, CNV area on Day 10 vs vehicle-treated group
With COCCNCc1cnc(-c2cc3nccc(Oc4ccc(NC(=O)NC5CC5)cc4F)c3s2)n1C [Compound 348] the “Inhibition of CNV progression” value was “B (≧40% to <60% inhibition)”.
